US20230022157A1 (Achillion Pharmaceuticals, Inc., priority 2018, published 2023)

biological target: T1, Human Factor D (Homo sapiens, UniProt P00746); test: Human Factor D Assay; assay type: biochemical; settings: Human Factor D 80 nM, substrate Z-L-Lys-SBzl, assay of Example 3; read-out: IC50 (Stars)
T1 construct: purified from human serum; purchased Complement Technology, Inc; host or cells: human serum (natural protein, not recombinant)
How it was run: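 Serum-purified human factor D (80 nM final) preincubated 5 min at room temperature with test compound in 50 mM Tris, 1M NaCl, pH 7.5. Z-L-Lys-SBzl substrate and DTNB then added, each at 100 μM final. IC50 from nonlinear regression of reaction rate against compound concentration.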

T1 sequence (P00746 26-253): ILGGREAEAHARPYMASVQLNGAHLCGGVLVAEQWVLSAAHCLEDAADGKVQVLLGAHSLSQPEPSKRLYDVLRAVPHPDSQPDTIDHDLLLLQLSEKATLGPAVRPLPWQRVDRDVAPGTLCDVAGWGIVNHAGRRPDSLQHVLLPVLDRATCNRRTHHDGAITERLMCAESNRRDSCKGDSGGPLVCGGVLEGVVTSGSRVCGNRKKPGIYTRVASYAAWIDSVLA

Row | IC50 | SMILES
1 | < 1 µM | CC(=O)c1nn(CC(=O)N2[C@H](C(=O)Nc3cccc(Br)n3)C[C@@]3(C)C[C@@H]23)c2c3c(c(-c4cnc(C)nc4)cc12)CCCO3 [Compound 19, (1R,3S,5R)-2-(2-(3-acetyl-5-(2-methylpyrimidin-5-yl)-7,8-dihydropyran[3,2-g]indazol-1(6H)-yl)acetyl)-N-(6-bromopyridin-2-yl)-5-methyl-2-azabicyclo[3.1.0] hexane-3-carboxamide]
2 | < 1 µM | CC(=O)c1nn(CC(=O)N2C[C@H](F)C[C@H]2C(=S)Nc2cccc(Br)n2)c2ccc(-c3cnc(C)nc3)cc12 [Compound 36, (2S,4R)-1-(2-(3-Acetyl-5-(2-methylpyrimidin-5-yl)-1H-indazol-1-yl)acetyl)-N-(6-bromopyridin-2-yl)-4-fluoropyrrolidine-2-carbothioamide]
3 | < 1 µM | CC(=O)c1nn(CC(=O)N2C[C@H](F)C[C@H]2C(=O)Nc2cccc(Br)n2)c2ccc(-c3ccc(C)c(F)c3)cc12 [Compound 34, (2S,4R)-1-(2-(3-Acetyl-5-(3-fluoro-4-methylphenyl)-1H-indazol-1-yl)acetyl)-N-(6-bromopyridin-2-yl)-4-fluoropyrrolidine-2-carboxamide]

same assay, conditions: Human Factor D 80 nM, substrate Z-L-Lys-SBzl; Table 2; read-out: IC50 (Stars)

Row | IC50 | SMILES
4 | < 1 µM | CC(=O)c1nn(CC(=O)N2[C@H](C(=O)Nc3cncc(Br)n3)C[C@@]3(C)C[C@@H]23)c2c(C)cc(-c3ccc(CO)nc3)cc12 [Compound 119, (1R,3S,5R)-2-(2-(3-acetyl-5-(6-(hydroxymethyl)pyridin-3-yl)-7-methyl-1H-indazol-1-yl)acetyl)-N-(6-bromopyrazin-2-yl)-5-methyl-2-azabicyclo[3.1.0]hexane-3-carboxamide]
5 | < 1 µM | CC(=O)c1nn(CC(=O)N2[C@H](C(=O)NC3CCCC4(C3)OCCO4)C[C@@]3(C)C[C@@H]23)c2c(C)cc(-c3cnc(C)nc3)cc12 (stereo partly drawn) [Compound 137, (1R,3S,5R)-2-{2-[3-acetyl-7-methyl-5-(2-methylpyrimidin-5-yl)indazol-1-yl]acetyl}-N-{1,4-dioxaspiro[4.5]decan-7-yl}-5-methyl-2-azabicyclo[3.1.0]hexane-3-carboxamide]
6 | < 1 µM | CC(=O)c1nn(CC(=O)N2[C@H](C(=O)N[C@H](c3ccccc3)C(F)(F)F)C[C@@]3(C)C[C@@H]23)c2c(C)cc(-c3cnc(C)nc3)cc12 [Compound 86, (1R,3S,5R)-2-{2-[3-acetyl-7-methyl-5-(2-methylpyrimidin-5-yl)indazol-1-yl]acetyl}-5-methyl-N-[(1R)-2,2,2-trifluoro-1-phenylethyl]-2-azabicyclo[3.1.0]hexane-3-carboxamide]
7 | < 1 µM | CC(=O)c1nn(CC(=O)N2[C@H](C(=O)Nc3nc(Br)ccc3C)C[C@@]3(C)C[C@@H]23)c2ccc(-c3cnc(C(C)O)nc3)cc12 (stereo partly drawn) [Compound 126, (1R,3S,5R)-2-(2-(3-acetyl-5-(2-(1-hydroxyethyl)pyrimidin-5-yl)-1H-indazol-1-yl)acetyl)-N-(6-bromo-3-methylpyridin-2-yl)-5-methyl-2-azabicyclo[3.1.0]hexane-3-carboxamide]
8 | < 1 µM | CC(=O)c1nn(CC(=O)N2[C@H](C(=O)Nc3cncc(Br)n3)C[C@@]3(C)C[C@@H]23)c2ccc(-c3cnc(CO)nc3)cc12 [Compound 64, (1R,3S,5R)-2-(2-(3-acetyl-5-(2-(hydroxymethyl)pyrimidin-5-yl)-1H-indazol-1-yl)acetyl)-N-(6-bromopyrazin-2-yl)-5-methyl-2-azabicyclo[3.1.0]hexane-3-carboxamide]
9 | < 1 µM | CC(=O)c1nn(CC(=O)N2[C@H](C(=O)N[C@H](C)C3CCCCC3)C[C@@]3(C)C[C@@H]23)c2c(C)cc(-c3cnc(C)nc3)cc12 [Compound 70, (1R,3S,5R)-2-(2-(3-acetyl-7-methyl-5-(2-methylpyrimidin-5-yl)-1H-indazol-1-yl)acetyl)-N—((R)-1-cyclohexylethyl)-5-methyl-2-azabicyclo[3.1.0]hexane-3-carboxamide]
10 | < 1 µM | CC(=O)c1cn(CC(=O)N2[C@H](C(=O)Nc3nc(C(F)(F)F)ccc3C)C[C@@]3(CF)C[C@@H]23)c2c(C)cc(-c3cnc(C)nc3)cc12 [Compound 234, (1R,3S,5S)-2-(2-(3-acetyl-7-methyl-5-(2-methylpyrimidin-5-yl)-1H-indol-1-yl)acetyl)-5-(fluoromethyl)-N-(3-methyl-6-(trifluoromethyl)pyridin-2-yl)-2-azabicyclo[3.1.0]hexane-3-carboxamide]
11 | < 1 µM | COCC(Cc1ccccc1)NC(=O)[C@@H]1C[C@@]2(C)C[C@H]2N1C(=O)Cn1nc(C(C)=O)c2cc(-c3cnc(C)nc3)cc(C)c21 (stereo partly drawn) [Compound 172, (1R,3S,5R)-2-{2-[3-acetyl-7-methyl-5-(2-methylpyrimidin-5-yl)indazol-1-yl]acetyl}-N-(1-methoxy-3-phenylpropan-2-yl)-5-methyl-2-azabicyclo[3.1.0]hexane-3-carboxamide]
12 | < 1 µM | CC(=O)c1cn(CC(=O)N2[C@H](C(=O)Nc3cc(C)cc(Br)n3)C[C@@]3(C)C[C@@H]23)c2c(C)cc(-c3cnc(C)nc3)cc12 [Compound 193, (1R,3S,5R)-2-(2-(3-acetyl-7-methyl-5-(2-methylpyrimidin-5-yl)-1H-indol-1-yl)acetyl)-N-(6-bromo-4-methylpyridin-2-yl)-5-methyl-2-azabicyclo[3.1.0]hexane-3-carboxamide]
13 | < 1 µM | CC(=O)c1nn(CC(=O)N2[C@H](C(=O)Nc3nc(Br)c(F)cc3C)C[C@@]3(C)C[C@@H]23)c2c(C)cc(-c3cnc(CO)nc3)cc12 [Compound 49, (1R,3S,5R)-2-(2-(3-acetyl-5-(2-(hydroxymethyl)pyrimidin-5-yl)-7-methyl-1H-indazol-1-yl)acetyl)-N-(6-bromo-5-fluoro-3-methylpyridin-2-yl)-5-methyl-2-azabicyclo[3.1.0]hexane-3-carboxamide]
14 | < 1 µM | COc1cc(Br)nc(NC(=O)[C@@H]2C[C@@]3(C)C[C@H]3N2C(=O)Cn2nc(C(C)=O)c3cc(-c4cnc(CO)nc4)cc(C)c32)c1 [Compound 65, (1R,3S,5R)-2-(2-(3-acetyl-5-(2-(hydroxymethyl)pyrimidin-5-yl)-7-methyl-11H-indazol-1-yl)acetyl)-N-(6-bromo-4-methoxypyridin-2-yl)-5-methyl-2-azabicyclo[3.1.0]hexane-3-carboxamide]
15 | < 1 µM | CC(=O)c1nn(CC(=O)N2C[C@H]3C[C@H]3[C@H]2C(=O)Nc2nc(Br)ccc2Cl)c2c(C)cc(-c3cnc(C(C)O)nc3)cc12 (stereo partly shown) [Compound 166]
16 | < 1 µM | CC(=O)c1nn(CC(=O)N2[C@H](C(=O)NCC3CCc4ccccc4C3)C[C@@]3(C)C[C@@H]23)c2c(C)cc(-c3cnc(C)nc3)cc12 (stereo partly drawn) [Compound 117, (1R,3S,5R)-2-{2-[3-acetyl-7-methyl-5-(2-methylpyrimidin-5-yl)indazol-1-yl]acetyl}-5-methyl-N-(1,2,3,4-tetrahydronaphthalen-2-ylmethyl)-2-azabicyclo[3.1.0]hexane-3-carboxamide]
17 | < 1 µM | CC(=O)c1nn(CC(=O)N2[C@H](C(=O)NC(C)Cc3cccs3)C[C@@]3(C)C[C@@H]23)c2c(C)cc(-c3cnc(C)nc3)cc12 (stereo partly drawn) [Compound 182, (1R,3S,5R)-2-{2-[3-acetyl-7-methyl-5-(2-methylpyrimidin-5-yl)indazol-1-yl]acetyl}-5-methyl-N-[1-(thiophen-2-yl)propan-2-yl]-2-azabicyclo[3.1.0]hexane-3-carboxamide]
18 | < 1 µM | CC(=O)c1nn(CC(=O)N2[C@H](C(=O)Nc3nc(Br)ccc3C)C[C@@]3(C)C[C@@H]23)c2c(C)cc(-c3cnc([C@H](C)O)nc3)cc12 (single isomer, unassigned) [Compound 141]
19 | < 1 µM | Cc1cc(F)c(Br)nc1NC(=O)[C@@H]1C[C@@]2(C)C[C@H]2N1C(=O)Cn1nc(C(N)=O)c2cc(-c3cnc(CO)nc3)nc(C)c21 [Compound 167, (1R,3S,5R)—N-(6-bromo-5-fluoro-3-methylpyridin-2-yl)-2-(2-{3-carbamoyl-5-[2-(hydroxymethyl)pyrimidin-5-yl]-7-methylpyrazolo[3,4-c]pyridin-1-yl}acetyl)-5-methyl-2-azabicyclo[3.1.0]hexane-3-carboxamide]
20 | < 1 µM | CC(=O)c1cn(CC(=O)N2[C@H](C(=O)Nc3nc(Br)c(F)cc3C)C[C@@]3(C)C[C@@H]23)c2c(C)cc(-c3cnc4cc(C)nn4c3)cc12 [Compound 209, (1R,3S,5R)-2-(2-(3-acetyl-7-methyl-5-(2-methylpyrazolo[1,5-a]pyrimidin-6-yl)-1H-indol-1-yl)acetyl)-N-(6-bromo-5-fluoro-3-methylpyridin-2-yl)-5-methyl-2-azabicyclo[3.1.0]hexane-3-carboxamide]
21 | < 1 µM | CC(=O)c1cn(CC(=O)N2[C@H](C(=O)Nc3nc(C(F)(F)F)ccc3C)C[C@@]3(C)C[C@@H]23)c2c(C)cc(-c3cnc4cc(C5CC5)nn4c3)cc12 [Compound 196, (1R,3S,5R)-2-(2-(3-acetyl-5-(2-cyclopropylpyrazolo[1,5-a]pyrimidin-6-yl)-7-methyl-1H-indol-1-yl)acetyl)-5-methyl-N-(3-methyl-6-(trifluoromethyl)pyridin-2-yl)-2-azabicyclo[3.1.0]hexane-3-carboxamide]
22 | < 1 µM | CC(=O)c1cn(CC(=O)N2[C@H](C(=O)Nc3nc(C(F)(F)F)ccc3C)C[C@@]3(C)C[C@@H]23)c2c(C)cc(-c3cnc4cc(CF)nn4c3)cc12 [Compound 228, (1R,3S,5R)-2-(2-(3-acetyl-5-(2-(fluoromethyl)pyrazolo[1,5-a]pyrimidin-6-yl)-7-methyl-1H-indol-1-yl)acetyl)-5-methyl-N-(3-methyl-6-(trifluoromethyl)pyridin-2-yl)-2-azabicyclo[3.1.0]hexane-3-carboxamide]
